Target: T1, AMP deaminase 3 (Homo sapiens, UniProt Q01432)
T1 sequence (Q01432 whole entry): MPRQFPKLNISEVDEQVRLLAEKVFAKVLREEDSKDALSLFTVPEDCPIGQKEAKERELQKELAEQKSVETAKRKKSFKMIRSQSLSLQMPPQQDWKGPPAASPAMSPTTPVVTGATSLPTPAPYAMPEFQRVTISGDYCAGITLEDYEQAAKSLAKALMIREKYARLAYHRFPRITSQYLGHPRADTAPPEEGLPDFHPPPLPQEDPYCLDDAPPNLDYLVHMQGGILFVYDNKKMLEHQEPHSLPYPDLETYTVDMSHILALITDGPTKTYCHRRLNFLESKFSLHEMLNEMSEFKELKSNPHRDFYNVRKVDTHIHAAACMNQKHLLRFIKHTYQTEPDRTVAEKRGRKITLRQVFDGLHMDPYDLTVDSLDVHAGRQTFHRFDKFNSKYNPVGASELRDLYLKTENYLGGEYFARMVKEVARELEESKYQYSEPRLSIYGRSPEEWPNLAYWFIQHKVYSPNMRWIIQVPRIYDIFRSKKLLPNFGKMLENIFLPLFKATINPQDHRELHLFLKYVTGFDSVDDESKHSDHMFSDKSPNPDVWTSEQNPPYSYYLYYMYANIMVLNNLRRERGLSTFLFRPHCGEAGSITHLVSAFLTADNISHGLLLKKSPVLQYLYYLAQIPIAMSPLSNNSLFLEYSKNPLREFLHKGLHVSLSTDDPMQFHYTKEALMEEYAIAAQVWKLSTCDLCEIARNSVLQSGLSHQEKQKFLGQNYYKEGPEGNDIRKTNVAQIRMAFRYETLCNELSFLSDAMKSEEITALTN
Test: AMPD Enzymatic Activity Assay
Details: pH 7.4

Molecule C[C@@H](NCc1ccc(-c2ccc(C(=O)O)cn2)cc1)c1cccc2ccncc12 [6-[4-({[(1R)-1-(isoquinolin-8-yl)ethyl]amino}methyl)phenyl]pyridine-3-carboxylic acid (Compound 2)] has an IC50 of 7.3 µM.

C[C@H](NCc1ccc(-c2ccc(C(=O)O)cn2)cc1)c1cccc2ccncc12 [6-[4-({[(1S)-1-(isoquinolin-8-yl)ethyl]amino}methyl)phenyl]pyridine-3-carboxylic acid (Compound 3)] gave an IC50 of 0.075 µM.

From BindingDB's records for doi:10.1016/j.chembiol.2014.09.011 (Astrazeneca R&D, 2014)
